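Five concentrations, 48 hours, 96-well plates. Here, GI50 denotes the concentration required for 50% inhibition of growth. Definition used: TGI = concentration required for complete inhibition of growth.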
Tests used:
Experiment in all cases: growth of human tumour cells (NCI), 48 h
UACC-257 melanoma = system: UACC-257 melanoma
SNB-75 CNS = system: SNB-75 CNS
A549 NSCLC = system: A549 NSCLC
HCC-2998 colon = system: HCC-2998 colon
CAKI-1 renal = system: CAKI-1 renal
PC-3 prostate = system: PC-3 prostate
LOX IMVI melanoma = system: LOX IMVI melanoma
HOP-62 NSCLC = system: HOP-62 NSCLC
NCI/ADR-RES ovarian = system: NCI/ADR-RES ovarian
T-47D breast = system: T-47D breast

Structure (SMILES)	GI50 (UACC-257 melanoma)	TGI (UACC-257 melanoma)	GI50 (SNB-75 CNS)	TGI (SNB-75 CNS)	GI50 (A549 NSCLC)	TGI (A549 NSCLC)	GI50 (HCC-2998 colon)	TGI (HCC-2998 colon)	GI50 (CAKI-1 renal)	TGI (CAKI-1 renal)	GI50 (PC-3 prostate)	TGI (PC-3 prostate)	GI50 (LOX IMVI melanoma)	TGI (LOX IMVI melanoma)	GI50 (HOP-62 NSCLC)	TGI (HOP-62 NSCLC)	GI50 (NCI/ADR-RES ovarian)	TGI (NCI/ADR-RES ovarian)	GI50 (T-47D breast)	TGI (T-47D breast)
O=S(=O)([O-])c1ccc(N=Cc2ccccc2[O-])cc1.O=S(=O)([O-])c1ccc(N=Cc2ccccc2[O-])cc1.[Co+2]	> 100 µM	> 100 µM	> 100 µM	> 100 µM	> 100 µM	> 100 µM	79.1 µM	> 100 µM												
O=C1/C=C/[C@@H](O)[C@@H]2C[C@@H](O)C[C@H]2/C=C/CCC[C@H](CCc2cccc3ccccc23)O1	0.0303 µM	0.983 µM	0.0358 µM	14.5 µM	0.0411 µM	13.2 µM	0.0444 µM	0.33 µM	0.239 µM	3.08 µM	0.065 µM	12 µM	0.0323 µM	0.11 µM	0.0713 µM	11.8 µM	0.0389 µM	1.86 µM		
Cc1nc2c(c(N3CCCc4ccccc43)n1)CCC2	12.9 µM	> 100 µM			< 0.01 µM	> 100 µM	< 0.01 µM	> 100 µM	< 0.01 µM	> 100 µM	< 0.01 µM	> 100 µM	< 0.01 µM	> 100 µM	< 0.01 µM	> 100 µM	< 0.01 µM	0.364 µM	30.7 µM	> 100 µM
COC(=O)c1ccccc1N(C(=O)c1ccccc1)c1ccccc1C		> 100 µM		> 100 µM		> 100 µM		> 100 µM		> 100 µM				> 100 µM		> 100 µM				
O=C(O)C[C@@H](Cl)[C@H](NC(=O)OCc1ccccc1)C(=O)O		> 100 µM		> 100 µM		> 100 µM		> 100 µM		> 100 µM				> 100 µM		> 100 µM				
CC(CC(=O)N1C(=O)C(C)(C)[C@@H](O)[C@H]1CC(C)C(Cl)(Cl)Cl)C(Cl)(Cl)Cl (stereo partly drawn)		> 100 µM		> 100 µM		> 100 µM		> 100 µM		> 100 µM				> 100 µM		> 100 µM				
C=C(CO)CC(O)c1cc(OC)ccc1OC (stereo not drawn)		> 100 µM		> 100 µM		> 100 µM		> 100 µM		> 100 µM				> 100 µM		> 100 µM				
N#CC(/C(CCC(=O)Nc1ccc(Cl)cc1)=N/NC(=O)c1cc2ccccc2cc1O)c1ccccc1 (stereo not drawn)		> 100 µM		> 100 µM		> 100 µM		> 100 µM						73.1 µM		85.3 µM				
CCOC(=O)C(=O)Nc1nc2c(OCC)cccc2s1		> 100 µM		> 100 µM		> 100 µM		> 100 µM		> 100 µM				> 100 µM		> 100 µM				
CC(C)C12Cc3c(ccc4ccccc34)OC1(C)Oc1ccc3ccccc3c1C2 (stereo not drawn)				> 100 µM		> 100 µM				> 100 µM				> 100 µM						
Cc1n[nH]c(=S)n(C)c1=S				> 100 µM		> 100 µM								> 100 µM		> 100 µM				

From PubChem BioAssay (NCI)
